Measurements as given in publication PMC6338342 (Journal of chromatography. B, Analytical technologies in …, 2016).
Like-named read-outs stand apart in the source and are kept apart here.

How the values were obtained:
[1] = rat, in vivo, po
3T3-L1 cells = assay: Adipocyte differentiation and Oil Red O staining; assay type: cell-based; conditions: 1 or 10 μM, Oil Red O staining on day 8
UMR 106 cells = assay: Alkaline phosphatase; assay type: cell-based; conditions: 0.01, 0.1, 1 μM, 48 h
UMR106 cells = assay: MTT cell proliferation assay; assay type: cell-based; conditions: 0.01, 0.1, 1, 10 μM, 24 h
in vivo = conditions: male, Sprague-Dawley, rat, po
[2] = male, Sprague-Dawley, rat, in vivo, po, 3 g/kg
[3] = male, Sprague-Dawley, rat, in vivo, po, 6 g/kg
[4] = male, Sprague-Dawley, rat, in vivo, po, 12 g/kg
[5] = male, Sprague-Dawley, rat, serum, po, 3 g/kg
[6] = male, Sprague-Dawley, rat, serum, po, 6 g/kg
[7] = male, Sprague-Dawley, rat, serum, po, 12 g/kg
[8] = rat serum, oral XLGB extract 3 g/kg, n = 6
[9] = rat serum, oral XLGB extract 6 g/kg, n = 6
[10] = rat serum, oral XLGB extract 12 g/kg, n = 6

CC1(C)CC[C@]2(C(=O)O[C@@H]3O[C@H](CO[C@@H]4O[C@H](CO)[C@@H](O)[C@H](O)[C@H]4O)[C@@H](O)[C@H](O)[C@H]3O)CC[C@]3(C)C(=CC[C@@H]4[C@@]5(C)CC[C@H](O[C@@H]6OC[C@H](O)[C@H](O)[C@H]6O)[C@@](C)(CO)[C@@H]5CC[C@]43C)[C@@H]2C1 [Akebia saponin D, akebia saponin D]
AUC0–∞ ([1]; 6 g/kg): 756.83 ± 140.72 ng·h/mL
AUC(0-t) ([1]; 6 g/kg): 731.52 ± 131.54 ng·h/mL
MRT0–t ([1]; 6 g/kg): 2.41 ± 0.25 h
MRT0–∞ ([1]; 6 g/kg): 2.63 ± 0.25 h
AUC0–∞ ([1]; 12 g/kg): 2658.47 ± 241.31 ng·h/mL
AUC(0-t) ([1]; 12 g/kg): 2642.49 ± 233.18 ng·h/mL
MRT0–t ([1]; 12 g/kg): 5.03 ± 0.32 h
MRT0–∞ ([1]; 12 g/kg): 5.91 ± 0.50 h

COc1ccc(-c2oc3c(CC=C(C)C)c(O[C@@H]4O[C@H](CO)[C@@H](O)[C@H](O)[C@H]4O)cc(O)c3c(=O)c2O[C@@H]2O[C@@H](C)[C@H](O)[C@@H](O)[C@H]2O[C@@H]2O[C@@H](C)[C@H](O)[C@@H](O)[C@H]2O)cc1 [Epimedin C, epimedin C]
AUC0–∞ ([1]; 3 g/kg): 69.33 ± 37.54 ng·h/mL
AUC(0-t) ([1]; 3 g/kg): 21.70 ± 3.40 ng·h/mL
MRT0–t ([1]; 3 g/kg): 1.41 ± 1.01 h
MRT0–∞ ([1]; 3 g/kg): 20.72 ± 19.70 h
AUC0–∞ ([1]; 6 g/kg): 1365.29 ± 80.31 ng·h/mL
AUC(0-t) ([1]; 6 g/kg): 1361.31 ± 79.46 ng·h/mL
MRT0–t ([1]; 6 g/kg): 1.45 ± 0.08 h
MRT0–∞ ([1]; 6 g/kg): 1.47 ± 0.08 h
AUC0–∞ ([1]; 12 g/kg): 4527.69 ± 474.54 ng·h/mL
AUC(0-t) ([1]; 12 g/kg): 4397.49 ± 435.63 ng·h/mL
MRT0–t ([1]; 12 g/kg): 3.07 ± 0.63 h
MRT0–∞ ([1]; 12 g/kg): 5.10 ± 4.50 h

O=c1ccc2ccc3occc3c2o1 [Isopsoralen, isopsoralen]
AUC(0-inf) [2]: 2470 ± 494 ng·h/mL
AUC(0-t) [2]: 2390 ± 460 ng·h/mL
Cmax [2]: 270 ± 35 ng/mL
MRT inf [2]: 8.73 ± 3.76 h
MRT last [2]: 7.49 ± 2.83 h
Tmax [2]: 3.5 ± 2.49 h
half-life [2]: 6.88 ± 4.89 h
AUC(0-t) [3]: 15100 ± 1290 ng·h/mL
Cmax [3]: 1140 ± 100 ng/mL
MRT inf [3]: 12.2 ± 0.75 h
MRT last [3]: 11.7 ± 0.83 h
Tmax [3]: 3.67 ± 0.52 h
half-life [3]: 6.78 ± 1.09 h
AUC(0-inf) [4]: 19900 ± 2020 ng·h/mL
AUC(0-t) [4]: 19400 ± 2000 ng·h/mL
Cmax [4]: 1240 ± 72.2 ng/mL
MRT inf [4]: 14.2 ± 1.43 h
MRT last [4]: 13.3 ± 0.43 h
Tmax [4]: 1.67 ± 0.41 h
half-life [4]: 6.86 ± 3.44 h

COc1ccc2c(c1O)-c1c(O)c(OC)cc3c1[C@H](C2)[N+](C)(C)CC3 [Magnoflorine, magnoflorine]
AUC(0-inf) [5]: 320 ± 96.9 ng·h/mL
AUC(0-t) [5]: 264 ± 76.2 ng·h/mL
Cmax [5]: 31.8 ± 4.77 ng/mL
MRT inf [5]: 26.2 ± 8.51 h
MRT last [5]: 16.4 ± 4.54 h
Tmax [5]: 0.5 h
half-life [5]: 20 ± 8.43 h
AUC(0-inf) [6]: 4610 ± 572 ng·h/mL
AUC(0-t) [6]: 2600 ± 249 ng·h/mL
Cmax [6]: 652 ± 64.6 ng/mL
MRT inf [6]: 44.4 ± 6.88 h
MRT last [6]: 17.3 ± 0.63 h
Tmax [6]: 0.67 ± 0.26 h
half-life [6]: 21.8 ± 4.2 h
AUC(0-inf) [7]: 3480 ± 121 ng·h/mL
AUC(0-t) [7]: 3330 ± 130 ng·h/mL
Cmax [7]: 1160 ± 102 ng/mL
MRT inf [7]: 9.43 ± 0.47 h
MRT last [7]: 6.67 ± 0.32 h
Tmax [7]: 1.67 ± 0.26 h
half-life [7]: 13.4 ± 0.75 h

CC(C)=CCc1cc(-c2coc3cc(O)ccc3c2=O)ccc1O [Neobavaisoflavone, neobavaisoflavone]
AUC(0-inf) [5]: 7.24 ± 6.25 ng·h/mL
AUC(0-t) [5]: 2.1 ± 0.78 ng·h/mL
Cmax [5]: 1.46 ± 0.38 ng/mL
MRT last [5]: 1.57 ± 0.81 h
Tmax [5]: 0.5 h
half-life [5]: 6.28 ± 7.25 h
AUC(0-inf) [6]: 60.6 ± 41 ng·h/mL
AUC(0-t) [6]: 41.1 ± 19 ng·h/mL
Cmax [6]: 10.7 ± 0.59 ng/mL
MRT inf [6]: 19.3 ± 20.7 h
MRT last [6]: 9.13 ± 9.19 h
Tmax [6]: 0.58 ± 0.2 h
half-life [6]: 11.2 ± 9.11 h
AUC(0-inf) [7]: 127 ± 32.3 ng·h/mL
AUC(0-t) [7]: 110 ± 30.3 ng·h/mL
Cmax [7]: 18.4 ± 5.4 ng/mL
MRT inf [7]: 17.2 ± 9.5 h
MRT last [7]: 8.79 ± 2.43 h
half-life [7]: 16.2 ± 10.3 h

O=c1ccc2cc3ccoc3cc2o1 [Psoralen, psoralen]
AUC(0-inf) [5]: 2810 ± 701 ng·h/mL
AUC(0-t) [5]: 2740 ± 682 ng·h/mL
Cmax [5]: 290 ± 23.3 ng/mL
MRT inf [5]: 8.4 ± 2.93 h
MRT last [5]: 7.55 ± 2.44 h
Tmax [5]: 4.5 ± 1.22 h
half-life [5]: 6.39 ± 3.73 h
AUC(0-inf) [6]: 18500 ± 529 ng·h/mL
AUC(0-t) [6]: 18300 ± 511 ng·h/mL
Cmax [6]: 1380 ± 150 ng/mL
MRT inf [6]: 12.2 ± 0.9 h
MRT last [6]: 11.8 ± 0.99 h
Tmax [6]: 2.92 ± 1.28 h
half-life [6]: 6.78 ± 1 h
AUC(0-inf) [7]: 28400 ± 877 ng·h/mL
AUC(0-t) [7]: 28300 ± 899 ng·h/mL
Cmax [7]: 1910 ± 118 ng/mL
MRT inf [7]: 13.3 ± 1.18 h
MRT last [7]: 13.2 ± 1.14 h
half-life [7]: 4.2 ± 0.42 h

CC(C)=CCc1cc2c(cc1O)oc(=O)c1c3ccc(O)cc3oc21 [Psoralidin, psoralidin]
effect on adipogenesis of 3T3-L1 cells (3T3-L1 cells): obviously inhibited adipocyte formation
AUC0–∞ ([1]; 6 g/kg): 11.58 ± 0.94 ng·h/mL
AUC(0-t) ([1]; 6 g/kg): 8.80 ± 1.38 ng·h/mL
MRT0–t ([1]; 6 g/kg): 1.78 ± 0.36 h
MRT0–∞ ([1]; 6 g/kg): 3.13 ± 0.36 h
AUC0–∞ ([1]; 12 g/kg): 34.27 ± 16.04 ng·h/mL
AUC(0-t) ([1]; 12 g/kg): 27.78 ± 13.97 ng·h/mL
MRT0–t ([1]; 12 g/kg): 2.05 ± 0.45 h
MRT0–∞ ([1]; 12 g/kg): 2.78 ± 0.68 h

C=C[C@H]1[C@H](O[C@@H]2O[C@H](CO)[C@@H](O)[C@H](O)[C@H]2O)OC=C2C(=O)OCC[C@H]21 [Sweroside, sweroside]
effect on alkaline phosphatase (ALP) activity of UMR 106 cells (UMR 106 cells): excellent bioactivities
effect on adipogenesis of 3T3-L1 cells (3T3-L1 cells): excellent bioactivities
effect on proliferation of UMR 106 cells (UMR106 cells): excellent bioactivities
AUC(0-inf) (in vivo; 3 g/kg): 452 ± 50.3 ng·h/mL
AUC(0-t) (in vivo; 3 g/kg): 313 ± 39.1 ng·h/mL
Cmax (in vivo; 3 g/kg): 35.6 ± 2.27 ng/mL
MRT inf (in vivo; 3 g/kg): 31.7 ± 4.64 h
Tmax (in vivo; 3 g/kg): 1.17 ± 0.26 h
half-life (in vivo; 3 g/kg): 21.3 ± 3.33 h
AUC(0-inf) (in vivo; 6 g/kg): 690 ± 110 ng·h/mL
AUC(0-t) (in vivo; 6 g/kg): 598 ± 59.4 ng·h/mL
Cmax (in vivo; 6 g/kg): 135 ± 10.2 ng/mL
MRT inf (in vivo; 6 g/kg): 16.7 ± 7.3 h
MRT last (in vivo; 6 g/kg): 8.31 ± 2.11 h
half-life (in vivo; 6 g/kg): 13.8 ± 7.36 h
AUC(0-inf) (in vivo; 12 g/kg): 1330 ± 97.9 ng·h/mL
AUC(0-t) (in vivo; 12 g/kg): 1150 ± 35.3 ng·h/mL
Cmax (in vivo; 12 g/kg): 301 ± 19.4 ng/mL
MRT inf (in vivo; 12 g/kg): 19.2 ± 6.86 h
MRT last (in vivo; 12 g/kg): 8.25 ± 0.83 h
Tmax (in vivo; 12 g/kg): 0.5 h
half-life (in vivo; 12 g/kg): 23.7 ± 12.3 h

bavachinin
AUC0–∞ [8]: 53.60 ± 27.93 ng·h/mL
AUC(0-t) [8]: 31.63 ± 11.39 ng·h/mL
Cmax [8]: 10.25 ± 2.84 ng/mL
MRT0–t [8]: 6.26 ± 4.26 h
MRT0–∞ [8]: 18.47 ± 15.68 h
Tmax [8]: 0.50 ± 0 h
t1/2 [8]: 11.51 ± 9.48 h
AUC0–∞ [9]: 406.85 ± 56.64 ng·h/mL
AUC(0-t) [9]: 346.62 ± 36.95 ng·h/mL
Cmax [9]: 20.41 ± 2.63 ng/mL
MRT0–t [9]: 19.50 ± 3.03 h
MRT0–∞ [9]: 28.15 ± 8.89 h
Tmax [9]: 1.25 ± 1.04 h
t1/2 [9]: 19.08 ± 8.31 h
AUC0–∞ [10]: 379.76 ± 59.32 ng·h/mL
AUC(0-t) [10]: 343.30 ± 61.62 ng·h/mL
Cmax [10]: 36.00 ± 4.29 ng/mL
MRT0–t [10]: 13.56 ± 2.69 h
MRT0–∞ [10]: 18.40 ± 3.38 h
Tmax [10]: 1.58 ± 0.38 h
t1/2 [10]: 12.57 ± 3.06 h

corylin
AUC0–∞ ([1]; 3 g/kg): 86.37 ± 67.67 ng·h/mL
AUC(0-t) ([1]; 3 g/kg): 10.62 ± 3.66 ng·h/mL
MRT0–t ([1]; 3 g/kg): 5.60 ± 5.20 h
MRT0–∞ ([1]; 3 g/kg): 51.11 ± 29.69 h
AUC0–∞ ([1]; 6 g/kg): 227.72 ± 52.75 ng·h/mL
AUC(0-t) ([1]; 6 g/kg): 166.50 ± 26.45 ng·h/mL
MRT0–t ([1]; 6 g/kg): 16.55 ± 4.24 h
MRT0–∞ ([1]; 6 g/kg): 33.27 ± 11.40 h
AUC0–∞ ([1]; 12 g/kg): 442.39 ± 107.76 ng·h/mL
AUC(0-t) ([1]; 12 g/kg): 386.15 ± 84.00 ng·h/mL
MRT0–t ([1]; 12 g/kg): 14.73 ± 1.76 h
MRT0–∞ ([1]; 12 g/kg): 20.65 ± 3.78 h
